Like-named read-outs stand apart in the source and are kept apart here. Peptide text beside a SMILES is read from it. * marks the point of attachment. Stearoyl = CCCCCCCCCCCCCCCCCC(=O)*; Palmitoyl = CCCCCCCCCCCCCCCC(=O)*
Key:
[1] = test system: HIV-1NL4-3(D36G) pseudovirus; assay type: cell-based
Experimental: (§1) The inhibitory activities of inhibitors against HIV-1 pseudoviruses and replication-competent isolates were measured as described previously. Briefly, HIV-1 pseudoviruses were generated via the cotransfection of HEK293T cells with an Env-expressing plasmid and a backbone plasmid that encodes Env-defective, luciferase-expressing HIV-1 genome (pSG3Δenv). Viral stocks of replication-competent HIV-1 isolates were generated by transfecting viral molecular clones into HEK293T cells. […] Inhibitors were prepared in 3-fold dilutions, mixed with 100 TCID50 of a virus, and then incubated for 1 h at room temperature. […] Luciferase activity was measured as described above.

HIV-1HXB2 Env = molecular target: T1, HIV-1HXB2 Env (Human immunodeficiency virus type 1 group M subtype B, UniProt P04578); assay: HIV-1HXB2 Env-mediated cell-cell fusion (HL2/3 effector, TZM-bl target, luciferase reporter); assay type: cell-based
T1 construct: HL2/3 cells, which stably express high levels of Env, Gag, Tat, Rev, and Nef proteins of the integrated HIV-1 molecular clone HXB2/3gpt; host or cells: HL2/3 cells (effector), cocultured with TZM-bl target cells
Experimental: The inhibitory activities of inhibitors on HIV-1HXB2 Env-mediated cell-cell fusion were determined by a reporter gene assay based on the activation of an HIV LTR-driven luciferase cassette in TZM-bl cells (target) by HIV-1 tat from HL2/3 cells (effector). Briefly, 1 x 10^4/well of TZM-bl cells were plated in 96-well plates and incubated at 37°C overnight. Then, 3 x 10^4/well of HL2/3 cells were cocultured with target cells for 6 h at 37°C in the presence or absence of an inhibitor at graded concentrations. Luciferase activity was measured using luciferase assay reagents and a Luminescence Counter (Promega, Madison, Wisconsin, USA).

NL4-3WT pseudovirus = assay type: cell-based, HIV-1; details: T-20 resistant, mean ± SD of 3 assays in triplicate, value in parentheses behind the bound
Experimental: as §1

[2] = test system: NL4-3G36S/V38M pseudovirus; assay type: cell-based, HIV-1; details: T-20 resistant, mean ± SD of 3 assays in triplicate
Experimental: as §1

NL4-3V38A pseudovirus = assay type: cell-based, HIV-1; details: T-20 resistant, mean ± SD of 3 assays in triplicate
Experimental: as §1

NL4-3V38M pseudovirus = assay type: cell-based, HIV-1; details: T-20 resistant, mean ± SD of 3 assays in triplicate
Experimental: as §1

NL4-3I37T pseudovirus = assay type: cell-based, HIV-1; details: T-20 resistant, mean ± SD of 3 assays in triplicate
Experimental: as §1

NL4-3Q40H pseudovirus = assay type: cell-based, HIV-1; details: T-20 resistant, mean ± SD of 3 assays in triplicate
Experimental: as §1

[3] = test system: NL4-3I37T/N43K pseudovirus; assay type: cell-based, HIV-1; details: T-20 resistant, mean ± SD of 3 assays in triplicate
Experimental: as §1

[4] = test system: NL4-3V38A/N42T pseudovirus; assay type: cell-based, HIV-1; details: T-20 resistant, mean ± SD of 3 assays in triplicate
Experimental: as §1

NL4-3N43K pseudovirus = assay type: cell-based, HIV-1; details: T-20 resistant, mean ± SD of 3 assays in triplicate
Experimental: as §1

[5] = Fig 1, NL4-3(D36G) pseudovirus, mean ± SD of three assays in triplicate, read-out: Anti-HIV activity (IC50, pM) NL4-3 entry
[6] = Table 4, NL4-3D36G, T-20 sensitive, mean ± SD of 3 assays in triplicate, value in parentheses behind the bound, read-out: IC50

T1 sequence (P04578 512-856): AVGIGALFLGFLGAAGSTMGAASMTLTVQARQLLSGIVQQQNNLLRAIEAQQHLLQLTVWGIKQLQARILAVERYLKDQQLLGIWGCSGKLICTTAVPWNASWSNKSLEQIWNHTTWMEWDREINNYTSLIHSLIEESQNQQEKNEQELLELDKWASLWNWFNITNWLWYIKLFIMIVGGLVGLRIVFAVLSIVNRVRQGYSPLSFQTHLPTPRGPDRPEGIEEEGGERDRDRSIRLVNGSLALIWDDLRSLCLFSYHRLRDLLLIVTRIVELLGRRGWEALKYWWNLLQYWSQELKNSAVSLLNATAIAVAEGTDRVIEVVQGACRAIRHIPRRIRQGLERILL

Compound	IC50 [1, 5]	IC50 (HIV-1HXB2 Env)	IC50 [1, 6]	IC50 (NL4-3WT pseudovirus)	IC50 [2]	IC50 (NL4-3V38A pseudovirus)	IC50 (NL4-3V38M pseudovirus)	IC50 (NL4-3I37T pseudovirus)	IC50 (NL4-3Q40H pseudovirus)	IC50 [3]	IC50 [4]	IC50 (NL4-3N43K pseudovirus)
CCCCCCCCCCCCCCCC(=O)NCCCC[C@H](NC(=O)[C@H](CCC(=O)O)NC(=O)[C@H](CC(C)C)NC(=O)[C@H](CCCCN)NC(=O)[C@H](CCCCN)NC(=O)[C@H](CC(C)C)NC(=O)[C@H](CCC(=O)O)NC(=O)[C@H](CCC(=O)O)NC(=O)[C@H](CCC(=O)O)NC(=O)[C@H](CC(N)=O)NC(=O)[C@H](CCCCN)NC(=O)[C@H](CCCCN)NC(=O)[C@H](CCC(N)=O)NC(=O)[C@H](CCC(N)=O)NC(=O)[C@H](CCC(=O)O)NC(=O)[C@H](CCC(=O)O)NC(=O)[C@H](C)NC(=O)[C@H](CCCCN)NC(=O)[C@H](CCCCN)NC(=O)[C@H](CC(C)C)NC(=O)[C@H](CC(C)C)NC(=O)[C@H](CCC(=O)O)NC(=O)[C@H](CCC(=O)O)NC(=O)[C@@H](NC(=O)[C@H](CCCCN)NC(=O)[C@H](CCC(N)=O)NC(=O)[C@H](CCC(=O)O)NC(=O)[C@H](Cc1c[nH]c2ccccc12)NC(C)=O)[C@@H](C)CC)C(N)=O [LP-52, reference compound] (Ac-WEQKIEELLKKAEEQQKKNEEELKKLEK(Palmitoyl)-NH2)	6.12 ± 0.25 pM	0.0187 ± 0.00301 nM	–	–	–	–	–	–	–	–	–	–
CCCCCCCCCCCCCCCCCC(=O)NCCCC[C@H](NC(=O)[C@H](CCC(=O)O)NC(=O)[C@H](CC(C)C)NC(=O)[C@H](CCCCN)NC(=O)[C@H](CCCCN)NC(=O)[C@H](CC(C)C)NC(=O)[C@H](CCC(=O)O)NC(=O)[C@H](CCC(=O)O)NC(=O)[C@H](CCC(=O)O)NC(=O)[C@H](CC(N)=O)NC(=O)[C@H](CCCCN)NC(=O)[C@H](CCCCN)NC(=O)[C@H](CCC(N)=O)NC(=O)[C@H](CCC(N)=O)NC(=O)[C@H](CCC(=O)O)NC(=O)[C@H](CCC(=O)O)NC(=O)[C@H](C)NC(=O)[C@H](CCCCN)NC(=O)[C@H](CCCCN)NC(=O)[C@H](CC(C)C)NC(=O)[C@H](CC(C)C)NC(=O)[C@H](CCC(=O)O)NC(=O)[C@H](CCC(=O)O)NC(=O)[C@@H](NC(C)=O)[C@@H](C)CC)C(N)=O [LP-90] (Ac-IEELLKKAEEQQKKNEEELKKLEK(Stearoyl)-NH2)	3.55 pM	0.0163 nM	< 10 pM	0.03 nM	2.37 ± 0.39 nM	8.25 ± 0.55 nM	4.32 ± 0.78 nM	0.51 ± 0.09 nM	4.17 ± 0.14 nM	0.0463 ± 0.00079 µM	0.0492 ± 0.00219 µM	5.05 ± 0.13 nM
enfuvirtide [Lipopeptide T-20, reference compound]	8560 ± 1050 pM	–	8770 ± 1020 pM	166 ± 19 nM	317.3 ± 1.65 nM	2240 ± 33.1 nM	1050 ± 74.8 nM	1220 ± 120 nM	1150 ± 88 nM	6.95 ± 1.14 µM	5.95 ± 0.7 µM	748 ± 41.9 nM

From PMC6375636, “Monotherapy with a low-dose lipopeptide HIV fusion inhibitor maintains long-term viral suppression in rhesus macaques” (PLoS Pathogens, 2019)
